Assay results: patent US8742132B2, “Indolylmaleimide derivatives processes for their production and pharmaceutical compositions” (Novartis AG, priority 2006, dated 2014)

What was measured:
Human recombinant PKCβ1 = biological target: T1, Human recombinant PKCβ1 (Homo sapiens, UniProt P05771); experiment: Protein Kinase Cβ1 Assay; format: biochemical; details: single compounds
T1 construct: purchased Oxford Biomedical Research
Experimental: (§1) The compounds of the invention are tested for their activity on different PKC isoforms according to the following method. Assay is performed in a white with clear bottom 384-well microtiterplate with non-binding surface. The reaction mixture (25 μl) contains 1.5 μM of a tridecapeptide acceptor substrate that mimics the pseudo substrate sequence of PKC a with the Ala→Ser replacement, 10 μM ^33P-ATP, 10 mM Mg(NO3)2, 0.2 mM CaCl2, PKC at a protein concentration varying from 25 to 400 ng/ml (depending on the isotype used), lipid vesicles (containing 30 mol % phosphatidylserine, 5 mol % DAG and 65 mol % phosphatidylcholine) at a final lipid concentration of 0.5 mM, in 20 mM Tris-HCl buffer pH 7.4 +0.1% BSA. Incubation is performed for 60 min at room temperature. Reaction is stopped by adding 50 μl of stop mix (100 mM EDTA, 200 μM ATP, 0.1% Triton X-100, 0.375 mg/well streptavidin-coated SPA beads in phosphate buffered saline w/o Ca, Mg. After 10 min incubation at room temperature, the suspension is spun down for 10 min at 300 g. Incorporated radioactivity is measured in a Trilux counter for 1 min. IC50 measurement is performed on a routine basis by incubating a serial dilution of inhibitor at concentrations ranging between […]. IC50 values are calculated from the graph by curve fitting with XL Fit® software. […]

Human recombinant PKCα = biological target: T2, Human recombinant PKCα (Homo sapiens, UniProt P17252); experiment: Protein Kinase Cα Assay; format: biochemical; details: single compounds
T2 construct: purchased Oxford Biomedical Research
Experimental: as §1

T1 sequence (P05771 whole entry): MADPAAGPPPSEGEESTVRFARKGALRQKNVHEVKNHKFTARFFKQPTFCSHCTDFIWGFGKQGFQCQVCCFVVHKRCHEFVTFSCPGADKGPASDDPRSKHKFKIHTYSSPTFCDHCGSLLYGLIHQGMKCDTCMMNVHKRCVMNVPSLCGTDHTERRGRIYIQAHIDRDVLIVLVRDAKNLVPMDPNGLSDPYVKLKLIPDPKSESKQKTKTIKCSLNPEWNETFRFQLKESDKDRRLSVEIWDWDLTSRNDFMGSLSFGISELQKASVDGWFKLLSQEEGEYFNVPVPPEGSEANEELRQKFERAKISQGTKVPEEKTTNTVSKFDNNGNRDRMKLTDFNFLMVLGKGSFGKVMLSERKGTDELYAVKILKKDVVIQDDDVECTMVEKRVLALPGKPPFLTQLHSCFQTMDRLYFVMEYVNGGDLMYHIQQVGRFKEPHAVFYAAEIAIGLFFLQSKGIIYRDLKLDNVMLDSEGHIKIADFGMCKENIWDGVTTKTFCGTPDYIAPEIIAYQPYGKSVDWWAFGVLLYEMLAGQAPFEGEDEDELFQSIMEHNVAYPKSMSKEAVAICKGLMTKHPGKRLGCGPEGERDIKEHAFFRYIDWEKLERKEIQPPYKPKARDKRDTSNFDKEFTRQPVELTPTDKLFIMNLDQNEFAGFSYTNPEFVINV

Compound: Cc1cc2ccc(CN(C)C)cn2c1C1=C(c2c[nH]c3ccccc23)C(=O)NC1=O [Example 24, 3-(6-Dimethylaminomethyl-2-methyl-indolizin-3-yl)-4-(1H-indol-3-yl)-pyrrole-2,5-dione]
- IC50 (Human recombinant PKCβ1): 18.2 nM

Compound: Cc1ccc2c(C3=C(c4c(C(F)(F)F)[nH]c5ccc(CN(C)C)cc45)C(=O)NC3=O)c[nH]c2c1 [Example 47]
- IC50 (Human recombinant PKCβ1): 0.9 nM

Compound: CNCc1ccc2[nH]c(C)c(C3=C(c4cn(C)c5ccccc45)C(=O)NC3=O)c2c1 [Example 51]
- IC50 (Human recombinant PKCα): 0.3 nM
